Data from patent US20260053811A1, “METHODS OF TREATING HYPERTENSION IN OBESE SUBJECTS” (Mineralys Therapeutics, Inc., priority 2022, published 2026).

Tested on: hypertensive subjects
Assay: Adverse events (TEAEs, SAEs, AESI, study drug discontinuation, dose modification);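 further: counts of spontaneously reported adverse events in the Safety Analysis Set, subjects grouped by treatment actually received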
Assay type: in vivo, human
Settings: Part 1
Description: In analyses performed on the Safety Analysis Set, subjects will be analyzed according to their actual treatment received.

`CC(=O)N[C@H]1CC[C@H](NC(=O)CN2CCN(c3nncc(-c4ccc(C)cc4)n3)CC2)CC1` [Compound A HBr] was tested, and the “On-treatment TEAE: General disorders and administration site conditions” value (50 mg QD (N = 28)) was 2 (7.1) n (%), the “On-treatment TEAE: General disorders and administration site conditions, Mild” value (50 mg QD (N = 28)) was 1 (3.6) n (%) and the “On-treatment TEAE: Glomerular filtration rate decreased” value (50 mg QD (N = 28)) was 0 n (%). The “On-treatment TEAE: Headache” value (50 mg QD (N = 28)) was 1 (3.6) n (%), the “On-treatment TEAE: Headache, Mild” value (50 mg QD (N = 28)) was 1 (3.6) n (%) and the “On-treatment TEAE: Hyperkalaemia” value (50 mg QD (N = 28)) was 3 (10.7) n (%). The “On-treatment TEAE: Hyperkalaemia, Mild” value (50 mg QD (N = 28)) was 3 (10.7) n (%), the “On-treatment TEAE: Hyperkalaemia, Moderate” value (50 mg QD (N = 28)) was 0 n (%) and the “On-treatment TEAE: Hyperkalaemia, Severe” value (50 mg QD (N = 28)) was 0 n (%). For the same molecule, the “On-treatment TEAE: Hypertension” value (50 mg QD (N = 28)) was 2 (7.1) n (%), the “On-treatment TEAE: Hypertension, Moderate” value (50 mg QD (N = 28)) was 2 (7.1) n (%) and the “On-treatment TEAE: Infections and infestations” value (50 mg QD (N = 28)) was 2 (7.1) n (%). The “On-treatment TEAE: Infections and infestations, Mild” value (50 mg QD (N = 28)) was 0 n (%), the “On-treatment TEAE: Infections and infestations, Moderate” value (50 mg QD (N = 28)) was 2 (7.1) n (%) and the “On-treatment TEAE: Investigations” value (50 mg QD (N = 28)) was 1 (3.6) n (%). The “On-treatment TEAE: Investigations, Mild” value (50 mg QD (N = 28)) was 1 (3.6) n (%), the “On-treatment TEAE: Investigations, Moderate” value (50 mg QD (N = 28)) was 0 n (%) and the “On-treatment TEAE: Metabolism and nutrition disorders” value (50 mg QD (N = 28)) was 5 (17.9) n (%). The “On-treatment TEAE: Metabolism and nutrition disorders, Mild” value (50 mg QD (N = 28)) was 5 (17.9) n (%), the “On-treatment TEAE: Metabolism and nutrition disorders, Moderate” value (50 mg QD (N = 28)) was 0 n (%) and the “On-treatment TEAE: Nervous system disorders” value (50 mg QD (N = 28)) was 2 (7.1) n (%). The “On-treatment TEAE: Nervous system disorders, Mild” value (50 mg QD (N = 28)) was 1 (3.6) n (%), the “On-treatment TEAE: Orthostatic hypotension” value (50 mg QD (N = 28)) was 0 n (%) and the “On-treatment TEAE: Orthostatic hypotension, Mild” value (50 mg QD (N = 28)) was 0 n (%). The “On-treatment TEAE: Psychiatric disorders” value (50 mg QD (N = 28)) was 0 n (%), the “On-treatment TEAE: Psychiatric disorders, Moderate” value (50 mg QD (N = 28)) was 0 n (%) and the “On-treatment TEAE: Urinary tract infection” value (50 mg QD (N = 28)) was 2 (7.1) n (%). For the same molecule, the “On-treatment TEAE: Urinary tract infection, Mild” value (50 mg QD (N = 28)) was 1 (3.6) n (%), the “On-treatment TEAE: Vascular disorders” value (50 mg QD (N = 28)) was 2 (7.1) n (%) and the “On-treatment TEAE: Vascular disorders, Mild” value (50 mg QD (N = 28)) was 0 n (%). For the same molecule, the “On-treatment TEAE: Vascular disorders, Moderate” value (50 mg QD (N = 28)) was 2 (7.1) n (%), the “On-treatment TEAE: any, Mild” value (50 mg QD (N = 28)) was 4 (14.3) n (%) and the “On-treatment TEAE: any, Moderate” value (50 mg QD (N = 28)) was 6 (21.4) n (%). The “On-treatment TEAE: any, Severe” value (50 mg QD (N = 28)) was 0 n (%), the “Subjects with any On-treatment TEAEs leading to withdrawal from study drug” value (50 mg QD (N = 28)) was 0 n (%) and the “TEAE leading to permanent discontinuation from study drug: Activated partial thromboplastin time prolonged” value (50 mg QD (N = 28)) was 0 n (%). For the same molecule, the “TEAE leading to permanent discontinuation from study drug: Cardiac disorders” value (50 mg QD (N = 28)) was 0 n (%), the “TEAE leading to permanent discontinuation from study drug: Coronary artery disease” value (50 mg QD (N = 28)) was 0 n (%) and the “TEAE leading to permanent discontinuation from study drug: Dizziness” value (50 mg QD (N = 28)) was 0 n (%). For the same molecule, the “TEAE leading to permanent discontinuation from study drug: Hyperkalaemia” value (50 mg QD (N = 28)) was 0 n (%), the “TEAE leading to permanent discontinuation from study drug: Hypertension” value (50 mg QD (N = 28)) was 0 n (%) and the “TEAE leading to permanent discontinuation from study drug: Hypotension” value (50 mg QD (N = 28)) was 0 n (%). The “TEAE leading to permanent discontinuation from study drug: Investigations” value (50 mg QD (N = 28)) was 0 n (%), the “TEAE leading to permanent discontinuation from study drug: Metabolism and nutrition disorders” value (50 mg QD (N = 28)) was 0 n (%) and the “TEAE leading to permanent discontinuation from study drug: Nervous system disorders” value (50 mg QD (N = 28)) was 0 n (%). The “TEAE leading to permanent discontinuation from study drug: Orthostatic hypotension” value (50 mg QD (N = 28)) was 0 n (%), the “TEAE leading to permanent discontinuation from study drug: Vascular disorders” value (50 mg QD (N = 28)) was 0 n (%) and the “On-treatment TEAE: Blood and lymphatic system disorders” value (100 mg QD (N = 30)) was 0 n (%). The “On-treatment TEAE: Blood and lymphatic system disorders, Mild” value (100 mg QD (N = 30)) was 0 n (%), the “On-treatment TEAE: Blood creatinine increased” value (100 mg QD (N = 30)) was 3 (10.0) n (%) and the “On-treatment TEAE: Blood creatinine increased, Mild” value (100 mg QD (N = 30)) was 3 (10.0) n (%). The “On-treatment TEAE: Cardiac disorders” value (100 mg QD (N = 30)) was 0 n (%), the “On-treatment TEAE: Cortisol decreased” value (100 mg QD (N = 30)) was 0 n (%) and the “On-treatment TEAE: Cortisol decreased, Mild” value (100 mg QD (N = 30)) was 0 n (%). The “On-treatment TEAE: Dizziness” value (100 mg QD (N = 30)) was 0 n (%), the “On-treatment TEAE: Gastrointestinal disorders” value (100 mg QD (N = 30)) was 2 (6.7) n (%) and the “On-treatment TEAE: Gastrointestinal disorders, Mild” value (100 mg QD (N = 30)) was 2 (6.7) n (%). For the same molecule, the “On-treatment TEAE: General disorders and administration site conditions” value (100 mg QD (N = 30)) was 0 n (%), the “On-treatment TEAE: General disorders and administration site conditions, Mild” value (100 mg QD (N = 30)) was 0 n (%) and the “On-treatment TEAE: Glomerular filtration rate decreased” value (100 mg QD (N = 30)) was 5 (16.7) n (%). For the same molecule, the “On-treatment TEAE: Headache” value (100 mg QD (N = 30)) was 0 n (%), the “On-treatment TEAE: Headache, Mild” value (100 mg QD (N = 30)) was 0 n (%) and the “On-treatment TEAE: Hyperkalaemia” value (100 mg QD (N = 30)) was 8 (26.7) n (%). For the same molecule, the “On-treatment TEAE: Hyperkalaemia, Mild” value (100 mg QD (N = 30)) was 8 (26.7) n (%), the “On-treatment TEAE: Hyperkalaemia, Moderate” value (100 mg QD (N = 30)) was 0 n (%) and the “On-treatment TEAE: Hyperkalaemia, Severe” value (100 mg QD (N = 30)) was 0 n (%). The “On-treatment TEAE: Hypertension” value (100 mg QD (N = 30)) was 0 n (%), the “On-treatment TEAE: Hypertension, Moderate” value (100 mg QD (N = 30)) was 0 n (%) and the “On-treatment TEAE: Infections and infestations” value (100 mg QD (N = 30)) was 2 (6.7) n (%). For the same molecule, the “On-treatment TEAE: Infections and infestations, Mild” value (100 mg QD (N = 30)) was 0 n (%), the “On-treatment TEAE: Infections and infestations, Moderate” value (100 mg QD (N = 30)) was 2 (6.7) n (%) and the “On-treatment TEAE: Investigations” value (100 mg QD (N = 30)) was 8 (26.7) n (%). The “On-treatment TEAE: Investigations, Mild” value (100 mg QD (N = 30)) was 6 (20.0) n (%), the “On-treatment TEAE: Investigations, Moderate” value (100 mg QD (N = 30)) was 2 (6.7) n (%) and the “On-treatment TEAE: Metabolism and nutrition disorders” value (100 mg QD (N = 30)) was 8 (26.7) n (%). For the same molecule, the “On-treatment TEAE: Metabolism and nutrition disorders, Mild” value (100 mg QD (N = 30)) was 8 (26.7) n (%), the “On-treatment TEAE: Metabolism and nutrition disorders, Moderate” value (100 mg QD (N = 30)) was 0 n (%) and the “On-treatment TEAE: Nervous system disorders” value (100 mg QD (N = 30)) was 0 n (%). For the same molecule, the “On-treatment TEAE: Nervous system disorders, Mild” value (100 mg QD (N = 30)) was 0 n (%), the “On-treatment TEAE: Orthostatic hypotension” value (100 mg QD (N = 30)) was 0 n (%) and the “On-treatment TEAE: Orthostatic hypotension, Mild” value (100 mg QD (N = 30)) was 0 n (%). The “On-treatment TEAE: Psychiatric disorders” value (100 mg QD (N = 30)) was 2 (6.7) n (%), the “On-treatment TEAE: Psychiatric disorders, Moderate” value (100 mg QD (N = 30)) was 2 (6.7) n (%) and the “On-treatment TEAE: Urinary tract infection” value (100 mg QD (N = 30)) was 1 (3.3) n (%). For the same molecule, the “On-treatment TEAE: Urinary tract infection, Mild” value (100 mg QD (N = 30)) was 0 n (%), the “On-treatment TEAE: Vascular disorders” value (100 mg QD (N = 30)) was 1 (3.3) n (%) and the “On-treatment TEAE: Vascular disorders, Mild” value (100 mg QD (N = 30)) was 0 n (%). The “On-treatment TEAE: Vascular disorders, Moderate” value (100 mg QD (N = 30)) was 1 (3.3) n (%), the “On-treatment TEAE: any, Mild” value (100 mg QD (N = 30)) was 9 (30.0) n (%) and the “On-treatment TEAE: any, Moderate” value (100 mg QD (N = 30)) was 7 (23.3) n (%). The “On-treatment TEAE: any, Severe” value (100 mg QD (N = 30)) was 0 n (%), the “Subjects with any On-treatment TEAEs leading to withdrawal from study drug” value (100 mg QD (N = 30)) was 4 (13.3) n (%) and the “TEAE leading to permanent discontinuation from study drug: Activated partial thromboplastin time prolonged” value (100 mg QD (N = 30)) was 1 (3.3) n (%). For the same molecule, the “TEAE leading to permanent discontinuation from study drug: Cardiac disorders” value (100 mg QD (N = 30)) was 0 n (%), the “TEAE leading to permanent discontinuation from study drug: Coronary artery disease” value (100 mg QD (N = 30)) was 0 n (%) and the “TEAE leading to permanent discontinuation from study drug: Dizziness” value (100 mg QD (N = 30)) was 0 n (%). For the same molecule, the “TEAE leading to permanent discontinuation from study drug: Hyperkalaemia” value (100 mg QD (N = 30)) was 2 (6.7) n (%), the “TEAE leading to permanent discontinuation from study drug: Hypertension” value (100 mg QD (N = 30)) was 0 n (%) and the “TEAE leading to permanent discontinuation from study drug: Hypotension” value (100 mg QD (N = 30)) was 1 (3.3) n (%). The “TEAE leading to permanent discontinuation from study drug: Investigations” value (100 mg QD (N = 30)) was 1 (3.3) n (%), the “TEAE leading to permanent discontinuation from study drug: Metabolism and nutrition disorders” value (100 mg QD (N = 30)) was 2 (6.7) n (%) and the “TEAE leading to permanent discontinuation from study drug: Nervous system disorders” value (100 mg QD (N = 30)) was 0 n (%).
